Test results: ChEMBL document CHEMBL2203135, “Novel progesterone receptor modulators: 4-aryl-phenylsulfonamides” (Bioorg Med Chem Lett, 2012)
pIC50: −log10 of the molar value.

What was measured:
[1] = molecular target: T1, Progesterone receptor (Homo sapiens, UniProt P06401); assay: Antagonist activity against progesterone receptor in human T47D cells by alkaline phosphatase assay; assay type: functional, cell-based
T1 sequence (P06401 whole entry): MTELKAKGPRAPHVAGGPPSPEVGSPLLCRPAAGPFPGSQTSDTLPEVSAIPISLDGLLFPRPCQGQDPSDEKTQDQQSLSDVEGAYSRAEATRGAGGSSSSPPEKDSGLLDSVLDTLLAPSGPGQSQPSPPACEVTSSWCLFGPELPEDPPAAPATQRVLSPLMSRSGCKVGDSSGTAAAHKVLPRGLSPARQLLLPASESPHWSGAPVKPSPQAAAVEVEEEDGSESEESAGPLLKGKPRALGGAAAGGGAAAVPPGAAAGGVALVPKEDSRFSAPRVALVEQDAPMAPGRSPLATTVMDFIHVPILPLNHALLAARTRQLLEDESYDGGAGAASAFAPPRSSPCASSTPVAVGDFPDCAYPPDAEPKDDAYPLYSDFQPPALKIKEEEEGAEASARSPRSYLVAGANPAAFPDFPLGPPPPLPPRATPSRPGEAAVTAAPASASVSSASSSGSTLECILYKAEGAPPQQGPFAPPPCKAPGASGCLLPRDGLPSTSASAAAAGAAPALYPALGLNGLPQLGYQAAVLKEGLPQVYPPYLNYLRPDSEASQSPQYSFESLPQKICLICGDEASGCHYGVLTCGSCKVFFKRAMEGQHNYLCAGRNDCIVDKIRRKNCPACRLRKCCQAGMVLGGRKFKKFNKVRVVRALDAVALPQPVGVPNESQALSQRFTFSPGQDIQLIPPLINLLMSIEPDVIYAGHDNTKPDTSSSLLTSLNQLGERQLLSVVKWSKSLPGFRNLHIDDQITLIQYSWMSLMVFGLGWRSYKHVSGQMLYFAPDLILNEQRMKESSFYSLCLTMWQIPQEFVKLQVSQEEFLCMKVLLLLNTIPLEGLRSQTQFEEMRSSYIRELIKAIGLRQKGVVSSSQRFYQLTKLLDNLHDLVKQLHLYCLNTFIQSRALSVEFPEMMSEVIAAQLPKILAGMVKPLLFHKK

[2] = molecular target: T2, Progesterone receptor (Homo sapiens) (UniProt P06401); assay: Antagonist activity against progesterone receptor in human T47D cells at 3 uM by alkaline phosphatase assay; assay type: functional, cell-based
T2 sequence (whole entry): T1 sequence (P06401 whole entry)

[3] = system: Salmonella typhimurium; assay: Mutagenicity in Salmonella typhimurium in presence of liver S9 fraction by non-GLP Ames test; assay type: toxicity, organism-based; details: salmonella enterica subsp. enterica serovar typhimurium
[4] = AUC (0 to infinity) in rat at 20 mg/kg, po administered as single dose; assay type: ADME, organism-based; set-up: time infinity, dose 20 mg/kg, route oral; details: plasma
[5] = Cmax in rat at 20 mg/kg, po administered as single dose; assay type: ADME, organism-based; set-up: dose 20 mg/kg, route oral; details: in vivo
[6] = Half life in rat at 20 mg/kg, po administered as single dose; assay type: ADME, organism-based; set-up: dose 20 mg/kg, route oral; details: in vivo
[7] = system: Salmonella typhimurium; assay: Mutagenicity in Salmonella typhimurium in absence of liver S9 fraction by non-GLP Ames test; assay type: toxicity, organism-based; details: salmonella enterica subsp. enterica serovar typhimurium

Row | pIC50 [1] | SMILES | Activity [3] | also measured
1 | 8.05 | CCS(=O)(=O)Nc1ccc(-c2ccc(C#N)n2C)cc1 | Toxic | AUC(0-inf) [4]: 12300 ng·h/mL; Activity [7]: Non-toxic; Cmax [5]: 6.7 µM; half-life [6]: 2.5 h
2 | 8.22 | CCS(=O)(=O)Nc1ccc(-c2ccc(C#N)n2C)c(F)c1 |  | 

The next lines start with the compound.

Row | SMILES | pIC50 [1] | Activity [3] | also measured
3 | Cn1c(C#N)ccc1-c1ccc(NS(C)(=O)=O)cc1 | 8.10 |  | 
4 | CC(C)c1ccc(S(=O)(=O)Nc2ccc(-c3ccc(C#N)n3C)cc2)cc1 |  |  | inhibition [2]: 54%
5 | CCS(=O)(=O)Nc1ccc(-c2ccc(C#N)n2C)c(C(F)(F)F)c1 | 7.92 | Non-toxic | 
6 | CCS(=O)(=O)Nc1ccc(-c2ccc(C#N)n2C)c(C#N)c1 | 6.89 |  | 
7 | CCS(=O)(=O)Nc1cc(F)c(-c2ccc(C#N)n2C)cc1F | 7.24 |  | 
8 | CCCS(=O)(=O)Nc1ccc(-c2ccc(C#N)n2C)cc1 | 8.00 |  | 
9 | Cn1c(C#N)ccc1-c1ccc(N)cc1 |  | Toxic | AUC(0-inf) [4]: 3080 ng·h/mL; Cmax [5]: 3.2 µM; half-life [6]: 2.5 h
10 | Cn1c(C#N)ccc1-c1ccc(NS(C)(=O)=O)cc1F | 8.10 | Non-toxic | Activity [7]: Non-toxic
11 | Cc1ccc(S(=O)(=O)Nc2ccc(-c3ccc(C#N)n3C)cc2)cc1 |  |  | inhibition [2]: 55%
12 | Cn1c(C#N)ccc1-c1ccc(NS(C)(=O)=O)c(C#N)c1 | < 5.52 |  | 
13 | CC(=O)Nc1ccc(-c2ccc(C#N)n2C)cc1 | 7.12 |  | AUC(0-inf) [4]: 1640 ng·h/mL; Cmax [5]: 0.7 µM; half-life [6]: 5 h
